In paper PMC12072223 (CPT: Pharmacometrics & Systems Pharmacology, 2025):
Several values for one entry are separate records, joined by “and”; a condition that tells them apart may be missing. Identical values can stand only once. Like-named read-outs stand apart in the source and are kept apart here.

Assays:
[1] = design: species or system human; conditions: PDA; in vitro-in vivo scaling
OAT1/3 [2] = experiment: Effect of OAT inhibitors on PDA pharmacokinetics in clinical DDI studies; conditions: for AUC ratio / Cmax ratio: PDA; for AUC(0-t) / Cmax: both, human, in vivo
OAT3 [3] = molecular target: T1, OAT3 (Homo sapiens, UniProt Q8TCC7); experiment: PDA uptake in OAT3-transfected HEK293 cells and RAF scaling; assay type: in vitro ADME
T1 sequence (Q8TCC7 1-542): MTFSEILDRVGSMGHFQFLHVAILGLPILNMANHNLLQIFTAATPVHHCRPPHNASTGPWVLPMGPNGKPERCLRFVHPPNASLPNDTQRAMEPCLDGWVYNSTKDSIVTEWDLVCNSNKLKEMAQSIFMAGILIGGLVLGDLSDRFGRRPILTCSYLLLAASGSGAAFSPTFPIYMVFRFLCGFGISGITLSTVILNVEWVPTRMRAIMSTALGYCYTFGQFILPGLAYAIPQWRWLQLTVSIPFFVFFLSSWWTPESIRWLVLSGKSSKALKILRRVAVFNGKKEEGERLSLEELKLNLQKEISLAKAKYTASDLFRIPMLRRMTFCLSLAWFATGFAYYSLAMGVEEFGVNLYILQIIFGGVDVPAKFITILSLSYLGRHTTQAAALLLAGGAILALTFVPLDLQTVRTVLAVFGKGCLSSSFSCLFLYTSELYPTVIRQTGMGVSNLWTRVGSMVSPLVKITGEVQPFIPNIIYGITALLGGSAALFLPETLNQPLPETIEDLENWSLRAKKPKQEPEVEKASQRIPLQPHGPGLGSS

OAT2 = molecular target: T2, OAT2 (Homo sapiens, UniProt Q9Y694); experiment: PDA uptake in OAT2-transfected HEK293 cells and RAF scaling; assay type: in vitro ADME
T2 sequence (Q9Y694 1-546 isoform Q9Y694-2): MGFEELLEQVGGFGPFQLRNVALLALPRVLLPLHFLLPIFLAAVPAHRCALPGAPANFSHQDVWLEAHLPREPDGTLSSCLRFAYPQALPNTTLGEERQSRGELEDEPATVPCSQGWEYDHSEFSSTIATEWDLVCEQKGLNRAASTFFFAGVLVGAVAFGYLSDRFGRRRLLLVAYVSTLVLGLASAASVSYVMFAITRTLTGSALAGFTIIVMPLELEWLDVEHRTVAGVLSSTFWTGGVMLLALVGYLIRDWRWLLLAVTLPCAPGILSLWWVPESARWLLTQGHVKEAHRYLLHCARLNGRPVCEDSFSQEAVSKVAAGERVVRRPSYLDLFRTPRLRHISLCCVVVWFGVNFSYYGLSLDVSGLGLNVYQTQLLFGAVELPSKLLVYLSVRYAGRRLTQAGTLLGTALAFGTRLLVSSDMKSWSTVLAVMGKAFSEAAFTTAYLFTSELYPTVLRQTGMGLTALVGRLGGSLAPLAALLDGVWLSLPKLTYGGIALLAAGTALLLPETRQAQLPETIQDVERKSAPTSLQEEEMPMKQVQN

[4] = PDA, cited from earlier work
OAT1 = molecular target: T3, OAT1 (Homo sapiens, UniProt Q4U2R8); experiment: PDA uptake in OAT1-transfected HEK293 cells and RAF scaling; assay type: in vitro ADME
T3 sequence (Q4U2R8 1-563): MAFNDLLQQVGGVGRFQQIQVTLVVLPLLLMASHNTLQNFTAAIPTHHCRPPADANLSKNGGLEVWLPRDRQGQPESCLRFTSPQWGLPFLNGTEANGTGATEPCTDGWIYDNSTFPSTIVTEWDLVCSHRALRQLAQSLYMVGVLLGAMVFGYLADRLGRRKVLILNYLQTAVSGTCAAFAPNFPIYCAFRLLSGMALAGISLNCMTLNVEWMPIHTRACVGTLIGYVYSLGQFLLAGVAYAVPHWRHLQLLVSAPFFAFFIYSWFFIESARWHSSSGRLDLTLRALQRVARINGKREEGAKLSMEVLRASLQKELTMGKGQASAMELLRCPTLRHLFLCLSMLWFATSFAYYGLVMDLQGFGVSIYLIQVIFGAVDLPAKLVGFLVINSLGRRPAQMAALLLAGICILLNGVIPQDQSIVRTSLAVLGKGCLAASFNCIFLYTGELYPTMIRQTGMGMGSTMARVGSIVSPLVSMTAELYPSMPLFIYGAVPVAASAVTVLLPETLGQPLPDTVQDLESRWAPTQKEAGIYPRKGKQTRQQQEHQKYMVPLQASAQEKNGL

OAT1/3 [5] = conditions: PDA, cited from earlier work
[6] = PDA plasma and urine levels at baseline in five clinical studies; assay type: in vivo, human; conditions: for AUC(0-t) / Cmax / concentration at 0 min / CL renal: human; for AUC(0-t) / Cmax / concentration at 0 min: plasma; for AUC(0-t): AUC0-24h; for concentration at 0 min: predose (0 min) plasma concentration; for CL renal: CLR
OAT3 [7] = molecular target: T1, OAT3; experiment: Inhibition of OAT3-mediated uptake in transfected HEK293 cells; assay type: in vitro ADME; conditions: from in vitro IC50 values
[8] = presence/absence of probenecid 1000 mg BID, Study 1
[9] = presence/absence of ritlecitinib 200 mg QD, Study 2
[10] = physiological scalars and relative activity factors
[11] = Shen 2019 Study 1, presence/absence of probenecid
[12] = Shen 2019 Study 1, probenecid 1000 mg single oral dose
[13] = Shen 2019 Study 2, presence/absence of probenecid
[14] = Shen 2019 Study 2, probenecid 1000 mg single oral dose
[15] = Willemin 2021, presence/absence of probenecid
[16] = Willemin 2021, probenecid 500 mg multiple oral doses
[17] = both, PDA plasma, Study 1 baseline (no inhibitor), n=12
[18] = both, PDA plasma, Study 2 baseline, n=12
[19] = both, PDA plasma, Study 3 baseline, n=12
[20] = male, PDA plasma, Study 5 baseline, males, n=23

Cc1ncc(CO)c(C(=O)O)c1O [PDA, Pyridoxic acid]
contribution of glomerular filtration to total CLR [1]: 5% and ~ 5%
AUC ratio (OAT1/3 [2]; [8]): 3.2
Cmax ratio (OAT1/3 [2]; [8]): 3
AUC ratio (OAT1/3 [2]; [9]): 1.1
Cmax ratio (OAT1/3 [2]; [9]): 1.1
AUC ratio (OAT1/3 [2]; presence/absence of tafamidis 61 mg, Study 3): 1.2
AUC(0-t) (OAT1/3 [2]; 200 mg): 72.8 ± 22.6 ng·h/mL
Cmax (OAT1/3 [2]; 200 mg): 3.9 ± 1 ng/mL
AUC(0-t) (OAT1/3 [2]; 1000 mg): 235 ± 76 ng·h/mL
Cmax (OAT1/3 [2]; 1000 mg): 11.9 ± 3.4 ng/mL
ft (fraction transported) OAT3 (OAT3 [3]; PDA renal secretion): 0.82
active uptake clearance via OAT3, scaled (OAT3 [3]; [10]): 7.55 mL/min/kg
ft (fraction transported) OAT2 (OAT2; PDA renal secretion): < 0.1
contribution of OAT2-specific active secretion to total CLR (OAT2; PDA, in vitro-in vivo scaling): 6%
active uptake clearance via OAT2, scaled (OAT2; [10]): 0.35 mL/min/kg
fu,plasma [4]: 0.08–0.1
fu,plasma ([4]; ref 13 (supplement ref 7)): 0.092
ft (fraction transported) OAT1 (OAT1; PDA renal secretion): < 0.1
contribution of OAT1-specific active secretion to total CLR (OAT1; PDA, in vitro-in vivo scaling): 7%
active uptake clearance via OAT1, scaled (OAT1; [10]): 3.31 mL/min/kg
inter-individual variability in predose plasma concentrations (OAT1/3 [5]; Indian population): 33 fold and ~ 33 fold
AUC0-24h (OAT1/3 [5]; Shen 2019 Study 1, baseline): 46 ± 53.7 ng·h/mL
CLR (OAT1/3 [5]; Shen 2019 Study 1, baseline): 226.7 ± 268.3 mL/min
Cmax (OAT1/3 [5]; Shen 2019 Study 1, baseline): 3.3 ± 4.6 ng/mL
AUC ratio (OAT1/3 [5]; [11]): 3.1
CLR ratio (OAT1/3 [5]; [11]): 0.37
Cmax ratio (OAT1/3 [5]; [11]): 3.1
AUC0-24h (OAT1/3 [5]; [12]): 116 ± 151 ng·h/mL
CLR (OAT1/3 [5]; [12]): 65 ± 55 mL/min
Cmax (OAT1/3 [5]; [12]): 9.3 ± 11.5 ng/mL
AUC0-24h (OAT1/3 [5]; Shen 2019 Study 2, baseline): 57.9 ± 75.7 ng·h/mL
CLR (OAT1/3 [5]; Shen 2019 Study 2, baseline): 221.7 ± 221.7 mL/min
Cmax (OAT1/3 [5]; Shen 2019 Study 2, baseline): 3.6 ± 4.5 ng/mL
AUC ratio (OAT1/3 [5]; [13]): 3.2
CLR ratio (OAT1/3 [5]; [13]): 0.4
Cmax ratio (OAT1/3 [5]; [13]): 3.4
AUC0-24h (OAT1/3 [5]; [14]): 152 ± 174 ng·h/mL
CLR (OAT1/3 [5]; [14]): 67.6 ± 41.2 mL/min
Cmax (OAT1/3 [5]; [14]): 10.1 ± 10.2 ng/mL
AUC0-24h (OAT1/3 [5]; Willemin 2021, baseline): 71.8 ± 21.3 ng·h/mL
CLR (OAT1/3 [5]; Willemin 2021, baseline): 328.3 ± 203.3 mL/min
Cmax (OAT1/3 [5]; Willemin 2021, baseline): 3.6 ± 0.8 ng/mL
AUC ratio (OAT1/3 [5]; [15]): 3.7
CLR ratio (OAT1/3 [5]; [15]): 0.17
Cmax ratio (OAT1/3 [5]; [15]): 3.7
AUC0-24h (OAT1/3 [5]; [16]): 271 ± 93 ng·h/mL
CLR (OAT1/3 [5]; [16]): 53.3 ± 25 mL/min
Cmax (OAT1/3 [5]; [16]): 13.7 ± 4.1 ng/mL
intra-individual variability in plasma concentration across 0-24 h ([6]; PDA): 16 % CV
amount excreted unchanged in urine lower in White males than Japanese males ([6]; PDA, Studies 4 and 5): 35%
variability in predose plasma concentrations and AUC0-24h ([6]; PDA, across the five studies): < 6 fold
inter-individual (overall) variability in plasma concentration ([6]; PDA, all five studies, n = 71): ~ 40% and < 40%
overall variability in AUC0-24h ([6]; PDA, five studies): 38%
overall variability in predose plasma concentration ([6]; PDA, five studies): 44%
AUC0-24h / baseline plasma level higher in White males than Japanese males ([6]; PDA, p < 0.05): 38%
CLR lower in White males than Japanese males ([6]; PDA, p < 0.05): ~ 54%
amount excreted in urine higher in Japanese males than White males ([6]; PDA, p < 0.05): 1.5 fold
renal clearance higher in Japanese males than White males ([6]; PDA, p < 0.05): 2.2 fold and ~ 2.2 fold
average AUC0-24h and Cmax lower in Hispanic/Latino compared to Whites ([6]; PDA, p > 0.05): ~ 30%
AUC0-24h higher in Study 5 compared to Study 4 ([6]; PDA, ~70% White males vs all Japanese males): 35%
AUC(0-t) [6, 17]: 86.7 ± 47.4 ng·h/mL
AUC(0-t) [6, 18]: 70.5 ± 24.3 ng·h/mL
AUC(0-t) [6, 19]: 64.2 ± 21.2 ng·h/mL
Cmax [6, 17]: 4.6 ± 2.5 ng/mL
Cmax [6, 18]: 3.8 ± 1.3 ng/mL
Cmax [6, 19]: 3.5 ± 1.1 ng/mL
concentration at 0 min ([6]; both, mean, PDA, across the five studies): 3.3 ng/mL
concentration at 0 min ([6]; both, range, PDA, across the five studies): 1.6 to 9.2 ng/mL
AUC(0-t) ([6]; male, PDA plasma baseline, males only, Japanese (13)): 56.5 ± 15.2 ng·h/mL
AUC(0-t) ([6]; male, PDA plasma baseline, males only, White (37)): 78.2 ± 28.2 ng·h/mL
AUC(0-t) [6, 20]: 74.6 ± 15.7 ng·h/mL
Cmax [6, 20]: 4.6 ± 1.9 ng/mL
CL renal ([6]; male, urine and plasma, PDA, Study 5 baseline): 230 ± 54.2 mL/min
CL renal ([6]; male, urine, PDA, Japanese males (13)): 546 ± 122 mL/min
CL renal ([6]; male, urine, PDA, White males (16)): 250 ± 48.2 mL/min

CCCN(CCC)S(=O)(=O)c1ccc(C(=O)O)cc1 [Probenecid]
potency as inhibitor for OAT3 versus OAT1 (OAT3 [7]): 5 fold

C=CC(=O)N1C[C@H](Nc2ncnc3[nH]ccc23)CC[C@@H]1C [Ritlecitinib]
change in PDA plasma concentration in the clinic (OAT1/3 [2]; ritlecitinib): no‐change
change in the AUC0-24h and Cmax of PDA (OAT1/3 [2]; ritlecitinib administration, Study 2): no significant change
